Laboratory results from patent US9937183B2, “Antimicrobial compounds and methods of making and using the same” (priority 2013, dated 2018).
≈ marks a conversion by molar mass, not a printed value. Read-outs that look alike come from different tables or passages of the source.

Experiments:
Type in all cases: cell-based
[1] = tested on: P. aeruginosa 1705904; assay: MIC, microtiter-based liquid assay (CLSI); details: Pseudomonas aeruginosa, MDR strain
[2] = tested on: B. mallei; assay: microbe, parasite or virus in culture; details: Burkholderia mallei; for MIC50: read-out: B. mallei MIC50; for MIC90: read-out: B. mallei MIC90; for MIC: read-out: B. mallei MIC Range
[3] = tested on: E. coli CAG12184 TolC; assay: MIC, microtiter-based liquid assay (CLSI); details: Escherichia coli, CAG12184TOLC
[4] = tested on: E. faecium A6349 VanA + LNZ-R; assay: MIC, microtiter-based liquid assay (CLSI); details: Enterococcus faecium
[5] = tested on: A. baumannii 1705936; assay: MIC, microtiter-based liquid assay (CLSI); details: Acinetobacter baumannii, MDR strain
[6] = tested on: A. baumannii 1705943; assay: MIC, microtiter-based liquid assay (CLSI); details: Acinetobacter baumannii
[7] = tested on: E. coli 1705878; assay: MIC, microtiter-based liquid assay (CLSI); details: Escherichia coli, MDR strain
[8] = tested on: S. aureus 11540 MRSA; assay: MIC, microtiter-based liquid assay (CLSI); details: Staphylococcus aureus
[9] = tested on: S. pneumoniae 02J1175 Mef(A); assay: MIC, microtiter-based liquid assay (CLSI); details: Streptococcus pneumoniae
[10] = tested on: K. pneumoniae 1705966; assay: MIC, microtiter-based liquid assay (CLSI); details: Klebsiella pneumoniae
[11] = tested on: B. anthracis; assay: microbe, parasite or virus in culture; details: Bacillus anthracis; for MIC50: read-out: B. anthracis MIC50; for MIC90: read-out: B. anthracis MIC90; for MIC: read-out: B. anthracis MIC Range
[12] = tested on: P. aeruginosa 1705886; assay: MIC, microtiter-based liquid assay (CLSI); details: Pseudomonas aeruginosa
[13] = tested on: Y. pestis; assay: microbe, parasite or virus in culture; details: for MIC50 / MIC90 / MIC: Yersinia pestis; for MIC50: read-out: Y. pestis MIC50; for MIC90: read-out: Y. pestis MIC90; for MIC: read-out: Y. pestis MIC Range
[14] = tested on: B. pseudomallei; assay: microbe, parasite or virus in culture; details: Burkholderia pseudomallei; for MIC50: read-out: B. pseudomallei MIC50; for MIC90: read-out: B. pseudomallei MIC90; for MIC: read-out: B. pseudomallei MIC Range
[15] = tested on: F. tularensis; assay: microbe, parasite or virus in culture; details: Francisella tularensis; for MIC50: read-out: F. tularensis MIC50; for MIC90: read-out: F. tularensis MIC90; for MIC: read-out: F. tularensis MIC Range
[16] = tested on: E. coli MG1655 parent; assay: MIC, microtiter-based liquid assay (CLSI); details: Escherichia coli
[17] = tested on: P. aeruginosa ATCC27853; assay: MIC, microtiter-based liquid assay (CLSI); details: Pseudomonas aeruginosa
[18] = tested on: E. coli ATCC25922; assay: MIC, microtiter-based liquid assay (CLSI); details: Escherichia coli
[19] = tested on: K. pneumoniae 1705949; assay: MIC, microtiter-based liquid assay (CLSI); details: Klebsiella pneumoniae, MDR strain
[20] = ATCC25922, read-out: MIC E. coli ATCC25922 + 50% HS
[21] = ATCC25922, read-out: MIC E. coli ATCC25922

SMILES | MIC [1] [µg/mL] | MIC50 [2] [µg/mL] | MIC90 [2] [µg/mL] | MIC [2] [µg/mL] | MIC [3] [µg/mL] | MIC [4] [µg/mL] | MIC [5] [µg/mL] | MIC [6] [µg/mL] | MIC [7] [µg/mL] | MIC [8] [µg/mL] | MIC [9] [µg/mL] | MIC [10] [µg/mL] | MIC [12] [µg/mL] | MIC50 [13] [µg/mL] | MIC [13] [µg/mL] | MIC [16] [µg/mL] | MIC [17] [µg/mL] | MIC [18, 20] [µg/mL] | MIC [18, 21] [µg/mL] | MIC [19] [µg/mL] | further results
C[C@H](N)CCCc1cc(-c2cc3cn(-c4ccc(CNCCCNC(=N)N)cc4)c(=O)nc3[nH]2)c(F)c(Cl)c1F [Compound 13] | 4 (≈ 7 µM) | ≤ 0.03 | 0.06 (≈ 0.105 µM) | 0.03 to 0.25 (≈ 0.0525 to 0.438 µM) | 0.25 (≈ 0.438 µM) | 0.5 | 4 (≈ 7 µM) | 0.25 (≈ 0.438 µM) | 0.25 (≈ 0.438 µM) | 0.25 (≈ 0.438 µM) | 0.25 (≈ 0.438 µM) | 0.25 (≈ 0.438 µM) | 2 (≈ 3.5 µM) | 0.06 (≈ 0.105 µM) | 0.03 to 0.25 (≈ 0.0525 to 0.438 µM) | 0.25 (≈ 0.438 µM) | 2 (≈ 3.5 µM) | 0.25 | 0.25 (≈ 0.438 µM) | 0.5 (≈ 0.876 µM) | MIC50 [11]: ≤ 0.03 µg/mL; MIC90 [11]: 0.12 µg/mL (≈ 0.21 µM); MIC [11]: 0.03 to 0.12 µg/mL (≈ 0.0525 to 0.21 µM); MIC90 [13]: 0.12 µg/mL (≈ 0.21 µM); MIC50 [14]: 4 µg/mL (≈ 7 µM); MIC90 [14]: 8 µg/mL (≈ 14 µM); MIC [14]: 0.5 to 16 µg/mL (≈ 0.876 to 28 µM); MIC50 [15]: ≤ 0.03 µg/mL; MIC90 [15]: ≤ 0.03 µg/mL; MIC [15]: 0.03 to 0.5 µg/mL (≈ 0.0525 to 0.876 µM)
C[C@H](NCCCNC(=N)N)c1ccc(-n2cc3cc(-c4cc(C5CCC(CN)CC5)cc(Cl)c4F)[nH]c3nc2=O)cc1 (stereo partly shown) [Compound 8] | 4 (≈ 6.74 µM) | ≤ 0.03 | 0.12 (≈ 0.202 µM) | 0.03 to 0.25 (≈ 0.0506 to 0.421 µM) | 0.25 (≈ 0.421 µM) | 4 | 1 (≈ 1.69 µM) | 0.5 (≈ 0.843 µM) | 1 (≈ 1.69 µM) | 0.25 (≈ 0.421 µM) | 0.5 (≈ 0.843 µM) | 1 (≈ 1.69 µM) | 4 (≈ 6.74 µM) | 0.12 (≈ 0.202 µM) | 0.03 to 0.5 (≈ 0.0506 to 0.843 µM) | 0.25 (≈ 0.421 µM) | 4 (≈ 6.74 µM) | 2 | 0.5 (≈ 0.843 µM) | 2 (≈ 3.37 µM) | Y. pestis MIC50 [13]: 0.06 µg/mL; MIC50 [15]: 0.06 µg/mL (≈ 0.101 µM); MIC [15]: 0.03 to 2 µg/mL (≈ 0.0506 to 3.37 µM)
C=CC[C@H](NCCCNC(=N)N)c1ccc(-n2cc3cc(-c4cc(CCC[C@H](C)N)cc(Cl)c4F)[nH]c3nc2=O)cc1 [Compound 9] | 4 (≈ 6.74 µM) | – | – | – | 0.25 (≈ 0.421 µM) | 0.5 | 0.5 (≈ 0.843 µM) | 0.25 (≈ 0.421 µM) | 0.5 (≈ 0.843 µM) | 0.25 (≈ 0.421 µM) | 0.25 (≈ 0.421 µM) | 0.25 (≈ 0.421 µM) | 2 (≈ 3.37 µM) | – | – | 0.25 (≈ 0.421 µM) | 2 (≈ 3.37 µM) | 0.5 | 0.25 (≈ 0.421 µM) | 0.5 (≈ 0.843 µM) | –
CN(C)c1cc(NC(=O)CNC(C)(C)C)c(O)c2c1C[C@H]1C[C@H]3[C@H](N(C)C)C(O)=C(C(N)=O)C(=O)[C@@]3(O)C(O)=C1C2=O [Tigecycline, reference compound] | > 32 | – | – | – | 0.125 (≈ 0.213 µM) | ≤ 0.06 | 2 (≈ 3.41 µM) | 0.125 (≈ 0.213 µM) | 0.5 (≈ 0.854 µM) | 0.25 (≈ 0.427 µM) | ≤ 0.06 | 0.5 (≈ 0.854 µM) | 8 (≈ 13.7 µM) | – | – | 0.25 (≈ 0.427 µM) | 8 (≈ 13.7 µM) | 0.25 | 0.125 (≈ 0.213 µM) | 1 (≈ 1.71 µM) | –
CC(C)c1cc(CCC[C@H](C)N)cc(-c2cc3cn(-c4ccc([C@H](C)NCCCNC(=N)N)cc4)c(=O)nc3[nH]2)c1F [Compound 7] | – | 0.06 (≈ 0.104 µM) | 0.12 (≈ 0.209 µM) | 0.03 to 0.5 (≈ 0.0522 to 0.87 µM) | 0.5 (≈ 0.87 µM) | 2 | 4 (≈ 6.96 µM) | 0.5 (≈ 0.87 µM) | 1 (≈ 1.74 µM) | 0.5 (≈ 0.87 µM) | 0.25 (≈ 0.435 µM) | 0.5 (≈ 0.87 µM) | 4 (≈ 6.96 µM) | 0.25 (≈ 0.435 µM) | 0.06 to 1 (≈ 0.104 to 1.74 µM) | 0.5 (≈ 0.87 µM) | 8 (≈ 13.9 µM) | 1 | 0.5 (≈ 0.87 µM) | 1 (≈ 1.74 µM) | MIC50 [11]: 0.12 µg/mL (≈ 0.209 µM); MIC90 [11]: 0.25 µg/mL (≈ 0.435 µM); MIC [11]: 0.03 to 0.5 µg/mL (≈ 0.0522 to 0.87 µM); MIC90 [13]: 0.5 µg/mL (≈ 0.87 µM); MIC50 [14]: 2 µg/mL (≈ 3.48 µM); MIC90 [14]: 4 µg/mL (≈ 6.96 µM); MIC [14]: 1 to 8 µg/mL (≈ 1.74 to 13.9 µM); MIC50 [15]: 0.06 µg/mL (≈ 0.104 µM); MIC90 [15]: 0.12 µg/mL (≈ 0.209 µM); MIC [15]: 0.03 to 0.5 µg/mL (≈ 0.0522 to 0.87 µM)
CC(C)(O/N=C(\C(=O)N[C@@H]1C(=O)N2C(C(=O)[O-])=C(C[n+]3ccccc3)CS[C@H]12)c1csc(N)n1)C(=O)O [Ceftazidime, reference compound] | – | – | – | – | – | – | – | – | – | – | – | – | – | – | – | – | – | – | – | – | MIC50 [14]: 2 µg/mL (≈ 3.66 µM); MIC90 [14]: 4 µg/mL (≈ 7.32 µM); MIC [14]: 1 to 64 µg/mL (≈ 1.83 to 117 µM)
